Source: patent publication US5262426A, “N,N'-cycloalkyl/alkyl carboxamide 4H-imidazo-[4,5-b]pyridine compounds as PAF antagonists” (G. D. Searle & Co., priority 1993, dated 1993)
Each block holds one molecule with its values, some of them ahead of it.

Tests used:
human platelets = test: Assay B: Human Platelet Aggregation Inhibition (PAF-induced, platelet-rich plasma); assay type: cell-based; conditions: 37°
Protocol: Assay B: Human Platelet Aggregation Inhibition
A compound of the invention was evaluated for ability to inhibit PAF-induced aggregation of human platelets in a human-platelet-rich plasma. Venous blood was collected from donors who fasted for 8 hours and were instructed not to use antiinflammatory drugs for 2 weeks prior to blood draw. Blood was collected into syringes containing 0.1 ml of 3.8% [w/v] citrate and centrifuged in polypropylene tubes at 150xg for 20 minutes at room temperature. The platelet rich plasma [PRP] was collected and let sit for 20 minutes at room temperature. Platelet activating factor [PAF] was diluted in 0.9% NaCl with 0.25% bovine serum albumin. Silicon treated cuvettes with stir bars were placed in the 37° heating block of the platelet aggregometer [Bio/Data Corporation, Platelet Aggregation Profiler, Model PAP-4]. PRP and test compound were added to cuvettes and aggregation monitored for 10-15 seconds at 37° with stirring. PAF was added and aggregation monitored for an additional 3 minutes. Peak aggregation was considered the peak of the first aggregation wave usually 45-60 seconds after PAF addition. Inhibition of aggregation was determined by the following: 1- [(% aggregation in the presence of compound).div.(% maximal aggregation)]. A log/logit transformation was used to determine half maximal inhibitory concentration of a test compound [IC50 ].

[1] = target: T1, PAF receptor (human platelet membrane preparation) (Homo sapiens, UniProt P25105); test: Assay A: Human Platelet Receptor Binding ([3H]PAF); conditions: for IC50: 0.75 nM [3H]PAF, 30 minutes at 24° C
T1 construct: human platelet membrane preparation; tissue Lifesource, Inc. (Glenview, Ill.); host or cells: human packed platelets (washed, freeze-thaw broken, membrane pellet)
T1 sequence (P25105 whole entry): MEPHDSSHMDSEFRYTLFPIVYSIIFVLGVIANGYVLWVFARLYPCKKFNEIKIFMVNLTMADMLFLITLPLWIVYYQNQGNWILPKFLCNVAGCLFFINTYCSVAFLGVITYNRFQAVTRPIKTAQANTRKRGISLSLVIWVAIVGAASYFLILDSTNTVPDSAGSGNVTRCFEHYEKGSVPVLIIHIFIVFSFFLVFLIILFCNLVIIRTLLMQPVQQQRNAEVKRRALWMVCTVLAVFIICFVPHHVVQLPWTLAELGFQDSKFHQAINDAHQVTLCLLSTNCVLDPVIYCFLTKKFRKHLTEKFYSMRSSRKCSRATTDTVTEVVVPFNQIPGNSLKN
Protocol: Assay A: Human Platelet Receptor Binding
Compounds of the invention were evaluated for their ability to inhibit specific binding of [^3 H]PAF to human platelet membrane preparation. Human packed platelets were obtained from Lifesource, Inc. (Glenview, Ill.) and washed 3 times with 10 mM Trizma pH 7.0, 2 mM EDTA (dipotassium salt), 150 mM KCl and then once with 10 mM Trizma 7.4, 20 mM CaCl2. The platelets were broken by freezing in a dry ice-ethanol bath, followed by thawing in 24° C. water baths. The preparation was centrifuged (40,000 x g, 20 minutes, 4'C) and the pellet resuspended in 10 mM Trizma 7.4, 20 mM CaCl2, 5 mg/ml human albumin. Protein concentration in the platelet membrane preparation was determined by the Lowry method [0. H. Lowry et al, J. Biol. Chem., 193 265-275 (1951)]. Aliquots of the membrane preparation were stored at -70° C. Each preparation was characterized for PAF receptor number and dissociation constant (Kd). In binding assays 5 μl of test compound, solubilzed in DMSO, was added to polypropylene tubes along with 0.75 nM [^3 H]PAF and 200 mcl [0.075 nM] of membranes and 95 μl 10 mM Trizma 7.4, 20 mM CaCL2, 5 mg/ml human albumin. Tubes were incubated for 30 minutes at 24° C. The incubation was terminated by adding 4 ml of ice-cold 10 mM Trizma pH 7.4, 20 mM CaCl2 and 20 mg/ml BSA prior to vacuum filtration using Whatman GF/C filters. Filters were prepared and counted for a scintillation counter. All DPM values were corrected for background and isotope decay. Triplicate determinations for single doses were averaged. The amount of non-specific binding was subtracted from all dose averages, giving an amount of specific binding in all cases. The IC50 values for compounds of the invention determined by the Allfit program using percent displacement data. Allfit is a "basic" computer program for simultaneous curve fitting of a family of sigmoidal dose-response curves using the four parameter logistic equation.

PAF-induced aggregation = conditions: human platelet-rich plasma; cited from earlier work
thromboxane synthetase = conditions: cited from earlier work
[2] = system: arachidonic acid-induced platelet aggregation; conditions: cited from earlier work
bronchoconstriction = conditions: cited from earlier work

SMILES: COc1cc(Cn2cccc3ncnc2-3)ccc1C(=O)N(C1CCCC1)C1CC(C)CC(C)C1 (stereo not shown) [Example 4, N-cyclopentyl-N-(3,5-dimethylcyclohexyl)-4-[(4H-imidazo[4,5-b]pyridin-4-yl)methyl]-2-methoxybenzamide]
IC50 (human platelets): 58 nM
IC50 [1]: 139 nM

SMILES: CN(C(=O)c1ccc(Cn2cnc3cnccc32)cc1)C1CCCCC1 [N-cyclohexyl-N-methyl-4-(1H-imidazo[4,5-c]pyridin-1-yl-methyl)benzamide]
inhibition of PAF-induced aggregation (PAF-induced aggregation): inhibitor of PAF-induced aggregation

SMILES: COc1cc(C(=O)N(C2CCCC2)C2CCCC2)ccc1Cn1cccc2ncnc1-2 [Example 1, N,N-dicyclopentyl-4-[(4H-imidazo[4,5-b]pyridin-4-yl)methyl]-3-methoxybenzamide]
IC50 [1]: 1050 nM

SMILES: CC(C)N(C(=O)c1ccc(Cn2cccc3ncnc2-3)cc1)C1CCCCC1 [Example 9, N-cyclohexyl-4-[(4H-imidazo[4,5-b]pyridin-4 yl)methyl]-N-(1-methylethyl)benzamide]
IC50 [1]: 854 nM

SMILES: C(=Cc1ccccc1)Cn1ccnc1 [1-(3-phenyl-2-propenyl)1H-imidazole]
inhibiting thromboxane synthetase (thromboxane synthetase): effective in inhibiting
inhibiting arachidonic acid-induced platelet aggregation [2]: effective in inhibiting
inhibiting bronchoconstriction (bronchoconstriction): effective in inhibiting

The remaining lines, values ahead:

inhibition at 10 µM ([1]; at 10 μM): 40%
SMILES: COc1cc(Cn2cccc3ncnc2-3)ccc1C(=O)N(C(C)C)C1CCCCC1 [Example 2, N-cyclohexyl-4-[(4H-imidazo[4,5-b]pyridin-4-yl)methyl]-2-methoxy-N-(1-methylethyl)benzamide]

IC50 [1]: 460 nM
SMILES: COc1cc(C(=O)N(C(C)C)C2CCCCC2)ccc1Cn1cccc2nc(CO)nc1-2 [Example 6, N-cyclohexyl-4-[[2-(hydroxymethyl)-4H-imidazo[4,5-b]pyridin-4-yl]methyl]-3 methoxy-N-(1-methylethyl)benzamide]

IC50 [1]: 643 nM
SMILES: COc1cc(C(=O)N(C(C)C)C2CCCCC2)ccc1Cn1cccc2ncnc1-2 [Example 3, N-cyclohexyl-4-[(4H-imidazo[4,5-b]pyridin-4-yl)methyl]-3-methoxy-N-(1-methylethyl)benzamide]

IC50 [1]: 323 nM
SMILES: COc1cc(C(=O)N(C(C)C)C2CCCCC2)ccc1Cn1cccc2nc(C)nc1-2 [Example 5, N-cyclohexyl-3-methoxy-N-(1-methylethyl)-4-[(2-methyl-4H-imidazo[4,5-b]pyridin-4 yl]methyl]benzamide]

IC50 [1]: 732 nM
SMILES: COc1cc(C(=O)N(C(C)C)C2CCCCC2)ccc1Cn1cccc2nc(-c3ccccn3)nc1-2 [Example 7, N-cyclohexyl-3-methoxy-N-(1-methylethyl)-4-[[2-(2-pyridinyl)-4H-imidazo[4,5-b]pyridin-4-yl]methyl]benzamide]
